Laboratory results as given in US10793514B2, “Glutamine transport inhibitors and methods for treating cancer” (Vanderbilt University, priority 2016, dated 2020).

How the values were obtained:
[1] = system: HT29 and HCT-116 cells; experiment: Cell viability with or without chloroquine; type: cell-based, human; conditions: combined with chloroquine (10 μM), 48 h
Experimental: Viability was evaluated using a commercially available chemiluminescent reagents (CellTiter-Glo, Promega Corp. G7572; MultiTox Glo, Promega Corp. G9270) in 96-well plate format according to the manufacturers protocol. […] Subsequently, CellTiter-Glo reagent was added and the plates were read using a plate reader (BioTek Synergy 4) with standard settings. Each set of conditions was replicated at least three times, technically and biologically. Error is reported as standard deviation (SD). The sulforhodamine B assay was run analogously to the above assays as previously described^19.

[2] = system: HT29 xenografts; experiment: Global metabolomic analysis of HT29 xenografts; type: in vivo, mouse; conditions: 21 consecutive days
Experimental: Metabolomic data acquisition was outsourced to Metabolon, Inc. Samples were prepared using the automated MicroLab STAR® system from Hamilton Company. To remove protein, dissociate small molecules bound to protein or trapped in the precipitated protein matrix, and to recover chemically diverse metabolites, proteins were precipitated with methanol under vigorous shaking for 2 min (Glen Mills GenoGrinder 2000) followed by centrifugation. The resulting extract was divided into five fractions: two for analysis by two separate reverse phase (RP)/UPLC-MS/MS methods with positive ion mode electrospray ionization (ESI), one for analysis by RP/UPLC-MS/MS with negative ion mode ESI, one for analysis by HILIC/UPLC-MS/MS with negative ion mode ESI, and one sample was reserved for backup. Samples were placed briefly on a TurboVap® (Zymark) to remove the organic solvent. All methods utilized a Waters ACQUITY ultra-performance liquid chromatography (UPLC) and a Thermo Scientific Q-Exactive high resolution/accurate mass spectrometer interfaced with a heated electrospray ionization (HESI-II) source and Orbitrap mass analyzer operated at 35,000 mass resolution. The sample extract was dried then reconstituted in solvents compatible to each of the four methods. Each reconstitution solvent contained a series of standards at fixed concentrations to ensure injection and chromatographic consistency. One aliquot was analyzed using acidic positive ion conditions, chromatographically optimized for more hydrophilic compounds. […] Another aliquot was also analyzed using acidic positive ion conditions, however it was chromatographically optimized for more hydrophobic compounds. […] Another aliquot was analyzed using basic negative ion optimized conditions using a separate dedicated C18 column. […] The fourth aliquot was analyzed via negative ionization following elution from a HILIC column (Waters UPLC BEH Amide 2.1×150 mm, 1.7 μm) using a gradient consisting of water and acetonitrile with 10 mM Ammonium Formate, pH 10.8. […] Peaks were quantified using area-under-the-curve. […]

[3] = system: HCC1806 cell line xenograft; experiment: [18F]-4F-glutamine PET imaging; type: in vivo, mouse; conditions: single dose 75 mg/kg, 4 h
Experimental: Animal handling methods for PET imaging studies were conducted as reported^5,42 Prior to imaging, animals were allowed to acclimate to facility environment for at least 1 h in a warmed chamber at 31.5° C. Animals were administered 10.4-11.8 MBq 4-[^18F]fluoroglutamine via intravenous injection and imaged using a Concorde Microsystems Focus 220 microPET scanner (Siemens Preclinical Solutions). During imaging, animals were maintained under 2% isoflurane anesthesia in oxygen at 2 L/min and kept warm for the duration of the PET scan. PET images in xenograft-bearing mice were acquired as 60-minute dynamic data sets. […] PET data were reconstructed using a three-dimensional (3D) ordered subset expectation maximization/maximum a posteriori (OSEM3D/MAP) algorithm. […] ASIPro software (Siemens Preclinical Solutions) was used to manually draw 3D regions of interest (ROIs) surrounding the entire tumor volume. 4-[^18F]fluoroglutamine uptake was quantified as the percentage of the injected dose per gram of tissue (% ID/g). Significance was calculated using a t-test in Graphpad Prism. Error is reported as standard deviation (SD).
For in vivo studies, cell-line xenograft tumors were propagated in 6-week old, female athymic nude mice from immortalized cell lines. […] Tumor volumes were measured manually using calipers every third day and quantified using the formula V=W·L·(H/2).

[4] = system: HCC1806 xenografts; experiment: HCC1806 xenograft 10-day exposure study; type: in vivo, mouse; conditions: 75 mg/kg per day, 10 days
Experimental: (§1) Tissues were sectioned (5 μm thickness) and stained for pS6 (Cell Signaling, #4858) and caspase 3 (Cell Signaling #9661). Tissue slides were imaged at 20× magnification.
(§2) For in vivo studies, cell-line xenograft tumors were propagated in 6-week old, female athymic nude mice from immortalized cell lines. For HCC-1806 (10×10^6 cells), HCT-116 (5×10^6), and HT29 (10×10^6) cells were injected. Palpable tumors were typically visible within 2-3 weeks. For imaging studies (HCC-1806), tumors were propagated to approximately 500 mm^3. For treatment studies (HCT-116, HT29) tumors were propagated to approximately 200 mm^3 prior to therapy and were randomly assigned into treated and untreated cohorts. For generating the PDX, primary tumor tissue was obtained form a patient at Vanderbilt University Medical Center under an IRB approved protocol. The tumor tissue was genotyped within the VANTAGE core facility. Xenograft was generated as previously described 41. Briefly, tumor tissues were sectioned into approximately 125 cubic millimeter pieces then implanted subcutaneously without further manipulation. […] Tumor volumes were measured manually using calipers every third day and quantified using the formula V=W·L·(H/2).

[5] = system: HCT-116 (KRAS G13D) cell-line xenografts; experiment: HCT-116 xenograft chronic exposure study; type: in vivo, mouse; conditions: 75 mg/kg per day, 21 days
Experimental: as §1, §2

[6] = target: ASCT2 (Homo sapiens (Human), UniProt Q15758); experiment: Drug Affinity Responsive Target Stability (DARTS) assay, ASCT2; conditions: tetracycline-inducible ASCT2 HEK293 cells; 50, 100, 200 μM
ASCT2, sequence (Q15758 whole entry): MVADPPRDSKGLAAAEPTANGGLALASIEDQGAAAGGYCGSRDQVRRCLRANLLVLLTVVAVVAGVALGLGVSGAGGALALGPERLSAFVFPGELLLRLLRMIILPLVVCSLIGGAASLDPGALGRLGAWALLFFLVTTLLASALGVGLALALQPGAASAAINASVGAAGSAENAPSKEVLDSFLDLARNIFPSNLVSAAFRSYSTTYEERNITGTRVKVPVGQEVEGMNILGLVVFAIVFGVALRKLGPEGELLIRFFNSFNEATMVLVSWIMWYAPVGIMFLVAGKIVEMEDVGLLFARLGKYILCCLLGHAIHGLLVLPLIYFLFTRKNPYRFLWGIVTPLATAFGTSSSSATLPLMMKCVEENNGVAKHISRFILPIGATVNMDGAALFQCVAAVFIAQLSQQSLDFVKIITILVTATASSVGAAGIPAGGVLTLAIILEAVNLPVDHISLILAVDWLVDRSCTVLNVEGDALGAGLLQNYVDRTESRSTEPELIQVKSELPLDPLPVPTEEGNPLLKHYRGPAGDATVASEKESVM

Cc1cccc(COc2ccccc2CN(CCC(N)C(=O)O)Cc2ccccc2OCc2cccc(C)c2)c1 (centres unmarked) [Compound V-9302]
cell viability, combination [1]: further decreased cell viability
creatine-phosphate levels in treated tumors [2]: significantly reduced
oxidized glutathione (GSSG) and 4-hydroxy-nonenal-glutathione in tumors [2]: significantly elevated
reduction of N-acetylserine in treated tumors [2]: greater than 4 fold
reduction of [18F]-4F-glutamine uptake in tumors [3]: approximately 50%
tumor growth [4]: tumor growth arrest
tumor response markers [4]: elevated LC3B and cleaved caspase 3, along with decreased pAKT (Ser473) and pS6
cleaved caspase 3 in tumor tissue ([5]; IHC): elevated levels of cleaved caspase 3
pS6 in tumor tissue ([5]; IHC): significantly decreased pS6
tumor growth ([5]; vs vehicle): prevented tumor growth
protection of ASCT2 from proteolysis (thermolysin) [6]: protected from proteolysis in a V-9302 concentration-dependent manner
